Reference: patent US4937360A, “N-substituted amide derivatives useful for treating liver diseases” (Taisho Pharmaceutical Co., Ltd., priority 1988, dated 1990)

Columns and labels:
[1] = tested on: acute liver injury induced by carbon tetrachloride; assay: Effect on acute liver injury induced by carbon tetrachloride (serum GPT); assay type: in vivo, male ICR strain mice; settings: oral, mice, 18 hours; for GPT: mean ± S.E.; for Inhibition %: serum GPT vs control
Procedure: (§1) Effect on acute liver injury induced by carbon tetrachloride Ten male ICR strain mice (six weeks old, about 30 g of body weight) per group were used for the test. Suspensions of the compound, obtained in Example 1, in 5% gum arabic solution in various concentrations were prepared for test drugs. A 5% gum arabic solution was used as a control. The test drugs and a 5% gum arabic solution were each administered orally in an amount of 10 ml/kg of body weight to different animals. After standing for 18 hours, the animals were anesthetized with ether, the blood was drawn and centrifuged for measuring the serum GPT value. Malotilate served as a comparative test drug.

[2] = tested on: acute liver injury induced by D-galactosamine; assay: Effect on acute liver injury induced by D-galactosamine (serum GPT); assay type: in vivo, male Wister strain rats; settings: oral, rats, 18 hours; for GPT: mean ± S.E.; for Inhibition %: serum GPT vs control
Procedure: as §1, with “D-galactosamine Six” for “carbon tetrachloride Ten”, “Wister” for “ICR”, “rats (eight” for “mice (six”, “200” for “30”, “5” for “10”

Compound	GPT ([1]; 10 mg/kg) [IU/1]	Inhibition % ([1]; 10 mg/kg) [%]	GPT ([1]; 30 mg/kg) [IU/1]	Inhibition % ([1]; 30 mg/kg) [%]	GPT ([1]; 100 mg/kg) [IU/1]	Inhibition % ([1]; 100 mg/kg) [%]	GPT ([2]; 30 mg/kg) [IU/1]	Inhibition % ([2]; 30 mg/kg) [%]	GPT ([2]; 100 mg/kg) [IU/1]	Inhibition % ([2]; 100 mg/kg) [%]	GPT ([2]; 300 mg/kg) [IU/1]	Inhibition % ([2]; 300 mg/kg) [%]
CC(=O)N(C)CC(=O)c1ccc2c(c1)OCO2 [A, N-methyl-N-(3,4-methylenedioxyphenacyl)acetamide]	2634 ± 380	56	636 ± 245	89	39 ± 3	100	15972 ± 2810	22.5	7440 ± 757	64.1	4415 ± 1539	78.8
CC(C)OC(=O)C(C(=O)OC(C)C)=C1SC=CS1 [B, Malotilate]	4291 ± 1012	28	1778 ± 310	71	148 ± 40	98	19240 ± 1183	6.4	11190 ± 777	45.6	15557 ± 1669	24.6
